# In ChEMBL document CHEMBL3885861, “Open TG-GATES”:
# Species on record: Rattus norvegicus
# Experiment: Open TG-GATES - Regimen: Daily Repeat
# Type: toxicity, organism-based, Sprague-Dawley
# Parameters: regimen Daily Repeat, gender Male, age 6 weeks
# Settings: in vivo, po, 30 mg/kg, route gavage, dose level Middle; for APTT / Bas / Eos / Fbg / Hb / Ht / Lym / MCHC / MCV / Mono / Neu / PT / Plat / RBC / Ret / WBC: tissue Blood; for KIDNEY_L / KIDNEY_R / KIDNEY_TOTAL: tissue Kidney; for LIVER: tissue Liver; for ALP / ALT / AST / BUN / CRE / Ca / Cl / DBIL / GLC / IP / K / LDH / Na / PL / RALB / TBIL / TC / TG / TP / gamma-GTP: tissue Plasma
compound,measurement,setting,value
CS(=O)(=O)Nc1ccc([N+](=O)[O-])cc1Oc1ccccc1 [NIMESULIDE],TERMINAL_BW,"72 h, time 3 day",222.3 g
same,APTT,"72 h, time 3 day",17.6 s
same,Bas,"72 h, time 3 day",0%
same,Eos,"72 h, time 3 day",1.2%
same,Fbg,"72 h, time 3 day",211.4 mg/dL
same,Hb,"72 h, time 3 day",13.8 g/dL
same,Ht,"72 h, time 3 day",41.1%
same,Lym,"72 h, time 3 day",68.6%
same,MCHC,"72 h, time 3 day",33.6%
same,MCV,"72 h, time 3 day",64 fL
same,Mono,"72 h, time 3 day",10.6%
same,Neu,"72 h, time 3 day",19.4%
same,PT,"72 h, time 3 day",11.3 s
same,Plat,"72 h, time 3 day",114.9 x10_4/uL
same,RBC,"72 h, time 3 day",642.4 x10_4/ul
same,Ret,"72 h, time 3 day",9%
same,WBC,"72 h, time 3 day",80.8 x10_2/uL
same,KIDNEY_L,"72 h, time 3 day",1 g
same,KIDNEY_R,"72 h, time 3 day",1.1 g
same,KIDNEY_TOTAL,"72 h, time 3 day",2.1 g
same,LIVER,"72 h, time 3 day",11.4 g
same,ALP,"72 h, time 3 day",888 IU/L
same,ALT,"72 h, time 3 day",38 IU/L
same,AST,"72 h, time 3 day",64.6 IU/L
same,BUN,"72 h, time 3 day",19.6 mg/dL
same,CRE,"72 h, time 3 day",0.6 mg/dL
same,Ca,"72 h, time 3 day",10.7 mg/dL
same,Cl,"72 h, time 3 day",104 meq/L
same,DBIL,"72 h, time 3 day",0.054 mg/dL
same,GLC,"72 h, time 3 day",196.8 mg/dL
same,IP,"72 h, time 3 day",8.2 mg/dL
same,K,"72 h, time 3 day",4.5 meq/L
same,LDH,"72 h, time 3 day",91.4 IU/L
same,Na,"72 h, time 3 day",140.8 meq/L
same,PL,"72 h, time 3 day",159.2 mg/dL
same,RALB,"72 h, time 3 day",4.1 g/dL
same,TBIL,"72 h, time 3 day",0.4 mg/dL
same,TC,"72 h, time 3 day",90.8 mg/dL
same,TG,"72 h, time 3 day",75.6 mg/dL
same,TP,"72 h, time 3 day",5.7 g/dL
same,gamma-GTP,"72 h, time 3 day",0.8 IU/L
same,TERMINAL_BW,"[…], time 7 day",250.1 g
same,TERMINAL_BW,"[…], time 14 day",313 g
same,TERMINAL_BW,"[…], time 28 day",399.9 g
same,APTT,"[…], time 7 day",17.5 s
same,Bas,"[…], time 7 day",0%
same,Eos,"[…], time 7 day",1.4%
same,Fbg,"[…], time 7 day",221.8 mg/dL
same,Hb,"[…], time 7 day",14 g/dL
same,Ht,"[…], time 7 day",41.4%
same,Lym,"[…], time 7 day",78.4%
same,MCHC,"[…], time 7 day",33.9%
same,MCV,"[…], time 7 day",63.3 fL
same,Mono,"[…], time 7 day",6%
same,Neu,"[…], time 7 day",14%
same,PT,"[…], time 7 day",11.2 s
same,Plat,"[…], time 7 day",135 x10_4/uL
same,RBC,"[…], time 7 day",655 x10_4/ul
same,Ret,"[…], time 7 day",6.6%
same,WBC,"[…], time 7 day",109.7 x10_2/uL
same,APTT,"[…], time 14 day",16.8 s
same,Bas,"[…], time 14 day",0%
same,Eos,"[…], time 14 day",1.2%
same,Fbg,"[…], time 14 day",227.6 mg/dL
same,Hb,"[…], time 14 day",14.2 g/dL
same,Ht,"[…], time 14 day",41.4%
same,Lym,"[…], time 14 day",76.2%
same,MCHC,"[…], time 14 day",34.4%
same,MCV,"[…], time 14 day",61.6 fL
same,Mono,"[…], time 14 day",6.6%
same,Neu,"[…], time 14 day",16.4%
same,PT,"[…], time 14 day",11.7 s
same,Plat,"[…], time 14 day",126.4 x10_4/uL
same,RBC,"[…], time 14 day",672.8 x10_4/ul
same,Ret,"[…], time 14 day",6.1%
same,WBC,"[…], time 14 day",127 x10_2/uL
same,APTT,"[…], time 28 day",18.5 s
same,Bas,"[…], time 28 day",0%
same,Eos,"[…], time 28 day",1%
same,Fbg,"[…], time 28 day",219.2 mg/dL
same,Hb,"[…], time 28 day",15.3 g/dL
same,Ht,"[…], time 28 day",45%
same,Lym,"[…], time 28 day",82.8%
same,MCHC,"[…], time 28 day",34.1%
same,MCV,"[…], time 28 day",58.1 fL
same,Mono,"[…], time 28 day",6%
same,Neu,"[…], time 28 day",10.4%
same,PT,"[…], time 28 day",11.7 s
same,Plat,"[…], time 28 day",112.1 x10_4/uL
same,RBC,"[…], time 28 day",775.2 x10_4/ul
same,Ret,"[…], time 28 day",2.8%
same,WBC,"[…], time 28 day",129 x10_2/uL
same,KIDNEY_L,"[…], time 7 day",1.1 g
same,KIDNEY_R,"[…], time 7 day",1.1 g
same,KIDNEY_TOTAL,"[…], time 7 day",2.2 g
same,KIDNEY_L,"[…], time 14 day",1.2 g
same,KIDNEY_R,"[…], time 14 day",1.3 g
same,KIDNEY_TOTAL,"[…], time 14 day",2.5 g
same,KIDNEY_L,"[…], time 28 day",1.4 g
same,KIDNEY_R,"[…], time 28 day",1.4 g
same,KIDNEY_TOTAL,"[…], time 28 day",2.8 g
same,LIVER,"[…], time 7 day",13 g
same,LIVER,"[…], time 14 day",17 g
same,LIVER,"[…], time 28 day",17.8 g
same,ALP,"[…], time 7 day",823.8 IU/L
same,ALT,"[…], time 7 day",36.6 IU/L
same,AST,"[…], time 7 day",60.6 IU/L
same,BUN,"[…], time 7 day",21.2 mg/dL
same,CRE,"[…], time 7 day",0.6 mg/dL
same,Ca,"[…], time 7 day",10.6 mg/dL
same,Cl,"[…], time 7 day",106 meq/L
same,DBIL,"[…], time 7 day",0.018 mg/dL
same,GLC,"[…], time 7 day",208.6 mg/dL
same,IP,"[…], time 7 day",7.5 mg/dL
same,K,"[…], time 7 day",4.5 meq/L
same,LDH,"[…], time 7 day",91.2 IU/L
same,Na,"[…], time 7 day",141.8 meq/L
same,PL,"[…], time 7 day",139.2 mg/dL
same,RALB,"[…], time 7 day",4.1 g/dL
same,TBIL,"[…], time 7 day",0.4 mg/dL
same,TC,"[…], time 7 day",74.2 mg/dL
same,TG,"[…], time 7 day",72.2 mg/dL
same,TP,"[…], time 7 day",5.9 g/dL
same,gamma-GTP,"[…], time 7 day",0.8 IU/L
same,ALP,"[…], time 14 day",888.2 IU/L
same,ALT,"[…], time 14 day",33 IU/L
same,AST,"[…], time 14 day",66.4 IU/L
same,BUN,"[…], time 14 day",23 mg/dL
same,CRE,"[…], time 14 day",0.6 mg/dL
same,Ca,"[…], time 14 day",10.7 mg/dL
same,Cl,"[…], time 14 day",105 meq/L
same,DBIL,"[…], time 14 day",0.004 mg/dL
same,GLC,"[…], time 14 day",195.4 mg/dL
same,IP,"[…], time 14 day",7.2 mg/dL
same,K,"[…], time 14 day",4.6 meq/L
same,LDH,"[…], time 14 day",82.2 IU/L
same,Na,"[…], time 14 day",141 meq/L
same,PL,"[…], time 14 day",155.2 mg/dL
same,RALB,"[…], time 14 day",4.1 g/dL
same,TBIL,"[…], time 14 day",0.4 mg/dL
same,TC,"[…], time 14 day",77 mg/dL
same,TG,"[…], time 14 day",120 mg/dL
same,TP,"[…], time 14 day",6 g/dL
same,gamma-GTP,"[…], time 14 day",1 IU/L
same,ALP,"[…], time 28 day",831.6 IU/L
same,ALT,"[…], time 28 day",37.2 IU/L
same,AST,"[…], time 28 day",65 IU/L
same,BUN,"[…], time 28 day",25.8 mg/dL
same,CRE,"[…], time 28 day",0.6 mg/dL
same,Ca,"[…], time 28 day",10.5 mg/dL
same,Cl,"[…], time 28 day",107.2 meq/L
same,DBIL,"[…], time 28 day",0.002 mg/dL
same,GLC,"[…], time 28 day",198.4 mg/dL
same,IP,"[…], time 28 day",7 mg/dL
same,K,"[…], time 28 day",4.6 meq/L
same,LDH,"[…], time 28 day",92.6 IU/L
same,Na,"[…], time 28 day",144 meq/L
same,PL,"[…], time 28 day",169 mg/dL
same,RALB,"[…], time 28 day",4.1 g/dL
same,TBIL,"[…], time 28 day",0.4 mg/dL
same,TC,"[…], time 28 day",80.4 mg/dL
same,TG,"[…], time 28 day",159.4 mg/dL
same,TP,"[…], time 28 day",6.3 g/dL
same,gamma-GTP,"[…], time 28 day",1.4 IU/L
